Assay results taken from patent US8901110B2, “Use of biomarkers in methods for the treatment of hepatocellular carcinoma” (Celgene Corporation, priority 2012, dated 2014).

How the values were obtained:
[1] = tested on: TCF-4; test: Western blot of nuclear TCF-4 expression after LM treatment; type: cell-based; conditions: 10 μM, 24 hrs; poorly-differentiated cells (Focus); normalized by lamin; FIG. 1
Method: Focus and Hub7 cells were treated with 10 μM of lenalidomide (“LM”) in DMSO or DMSO as a control for 24 hrs. Nuclear and cytosolic proteins were separately extracted and the expression of TCF-4 was analyzed by western blot. Nuclear expression of both long and short isoforms of TCF-4 was qualified using ImageJ (NIH) and normalized by expression of lamin.

[2] = tested on: HAK-1B cell line (poorly differentiated HCC cell line); test: Cell migration assay (migration chamber), HAK-1B cell line; type: cell-based; conditions: FIG. 4
Method: (§1) Focus and Hub7 cells were treated with 10 μM of LM in DMSO or DMSO as a control for 24 hrs. The cells were transferred in a migration chamber (BD Biosciences). The lower chamber was filled with 10% FBS-containing medium as a chemoattractant and was separated from the upper chamber by a 8 μm pore membrane. After 16 hrs, the remaining cells in the upper chamber (non-migrated cells) were removed and the cell attached to the bottom of the membrane (migrated cells) were stained with crystal violet and counted using Stereologer (SRC) in 10 different fields of the membrane.
(§2) In another set of experiments, the effects of LM and Compound A on HCC cell migration and invasion were assessed using procedures similar to those described above, except that HAK-1B cell line (poorly differentiated HCC cell line) was employed.

[3] = tested on: HAK-1A cell line (well differentiated HCC cell line); test: Wound healing assay, HAK-1A cell line; type: cell-based; conditions: FIG. 6
Method: In another set of experiments, the effects of LM and Compound A on HCC cell migration were assessed using wound healing assay in HAK-1A cell line (well differentiated HCC cell line). The following procedures were used.
(§3) 1. Cell seeding: A grid on the underside of the plate (60 mm) was drawn according to the paper diagram. Cells were seeded on 60 mm dish (aimed for confluent cells).
(§4) 2. Scratch wound: Using a tip (green), a scratch wound was made. The locations of the wounds were recorded by drawing on a paper. SF DMEM+trypsin aliquot was retrieved from the incubator, and the media/floating cells from the dish was aspirated. Cells were washed with DMEM+Trypsin to remove cells that have not been completely scratched away from the wound. Then the dish was filled with 4 ml of 10% FBS DMEM.
(§5) 3. Taking photographs: The marker was included on the top of the image frame so the same wound area can be kept track of. Then pictures of those wounds for the indicated time points were taken. Results were expressed as percentage of wound closure, as an index of cell migration, normalized to the initial width.

[4] = tested on: Focus cells (poorly differentiated HCC cell line); test: Cell invasion assay (Matrigel-coated chamber), Focus cell line; type: cell-based
Method: (§6) Focus and Hub7 cells were treated with 10 μM of LM in DMSO or DMSO as a control for 24 hrs. The cells were transferred in a migration chamber coated with Matrigel (BD Biosciences). After 16 hrs, invasive cells attached to the bottom of the membrane were stained/counted and normalized by the number of migrative cells in a corresponding non-coated migration chamber.
(§7) In another set of experiments, the effects of LM and Compound A on HCC cell migration and invasion were assessed using procedures similar to those described above using FOCUS cell line (poorly differentiated HCC cell line).

[5] = tested on: HAK1A-J xenograft; test: HAK1A-J xenograft models, pilot study (tumor volume); type: in vivo, mice; conditions: compared with control, FIG. 19
Method: Effects of LM and Compound A in HAK1A-J xenograft models were examined in a pilot study using 5 animals (mice). Anti-tumor effects of LM and Compound A were assessed following the xenograft by measuring tumor volume after the treatment by the drugs.

[6] = tested on: HAK-1A cell line (well differentiated HCC cell line); test: Cell migration assay (migration chamber), HAK-1A cell line; type: cell-based; conditions: FIG. 3
[7] = tested on: HAK1A-J xenograft; test: HAK1A-J xenograft models (tumor volume); type: in vivo; conditions: male mice; compared with control or LM treated mice; FIG. 21
Method: Effects of LM and Compound A in HAK1A-J xenograft models were examined using 50 male mice 4 weeks of age. Anti-tumor effects of LM and Compound A were assessed following the xenograft by measuring tumor volume after the treatment by the drugs.

[8] = tested on: TCF-4J isoform dependent target genes; test: qRT-PCR of TCF-4J responsive target genes in xenograft tumors; type: in vivo, mice; conditions: for mRNA expression: HAK1A-J xenograft models, legend of FIG. 22, genes not named
Method: Effects of LM and Compound A on expression of TCF-4J responsive target genes in HAK-1A xenograft tumors were assessed by measuring mRNA expression levels of TCF-4J isoform dependent target genes in xenograft tumors treated with LM, Compound A and control vehicle. The following procedures were used: Total RNA was extracted from tumors using TRIzol Reagent, and reverse transcription was performed with First Strand cDNA Synthesis Kit for RT-PCR (AMV). Quantitative real-time PCR was carried out on a Mastercycler ep realplex instrument and software, using SYBR Green PCR reagents. Relative quantification was performed using ΔΔCt method, normalizing to 18S rRNA. Dissociation curves were generated to evaluate PCR product specificity and purity.

[9] = tested on: Focus cells (poorly differentiated HCC cell line); test: Cell migration assay (migration chamber), Focus cell line; type: cell-based
Method: as §1, §7

[10] = tested on: FOCUS cell line (poorly differentiated HCC cell line); test: Wound healing assay, FOCUS cell line; type: cell-based; conditions: FIG. 7
Method: as §3, §4, §5
In another set of experiments, the effects of LM and Compound A on HCC cell migration were assessed using wound healing assay in FOCUS cell line (poorly differentiated HCC cell line).

[11] = tested on: HAK-1B cell line (poorly differentiated HCC cell line); test: Wound healing assay, HAK-1B cell line; type: cell-based; conditions: FIG. 8
Method: as §3, §4, §5
In another set of experiments, the effects of LM and Compound A on HCC cell migration were assessed using wound healing assay in HAK-1B cell line (poorly differentiated HCC cell line).

[12] = tested on: HCC cell lines Huh7, FOCUS, HAK-1A and HAK-1B; test: MTS assay (cytotoxicity); type: cell-based; conditions: 24 or 72 hours; FIG. 17
Method: MTS assay was performed to evaluate the toxicity of Compound A for HCC cell lines Huh7, FOCUS, HAK-1A and HAK-1B. Compound A, at various concentrations ranging from […], was incubated with the specified cells for 24 or 72 hours.

[13] = tested on: HAK-1B cell line (poorly differentiated HCC cell line); test: Cell invasion assay (Matrigel-coated chamber), HAK-1B cell line; type: cell-based; conditions: HAK-1B (printed HAK-1AB), FIG. 4
Method: as §6, §2

[14] = another set of experiments, FOCUS, poorly differentiated, FIG. 5
[15] = xenograft tumors, ΔΔCt, normalized to 18S rRNA, FIG. 22

Structure (SMILES)	cell migration [2]	cell migration (wound closure) [3]	cell invasion [4, 14]	tumor volume [5]	cell migration [6]	tumor volume [7]	mRNA expression [8]	cell migration [9, 14]	cell migration (wound closure) [10]	also measured
Nc1cccc2c1CN(C1CCC(=O)NC1=O)C2=O (stereo not drawn) [LM, 1-oxo-2-(2,6-dioxopiperidin-3-yl)-4-aminoisoindoline, reference compound]	inhibited cell migration	did not affect the cell migration	inhibited cell invasion	significantly reduced the volume of tumors	did not affect the cell migration	reduction of tumor volume was observed	reduction of mRNA expression	did not inhibit cell migration	reduced cell migration	TCF-4 expression, short and long forms (nuclear) [1]: decreased; cell invasion ([4]; 10 μM, 24 hrs, invasive cells after 16 hrs, normalized by migrative cells, Focus, FIG. 2): inhibited cell invasion; cell migration ([9]; 10 μM, 24 hrs, migrated cells counted after 16 hrs, Focus, FIG. 2): inhibited cell migration
Cc1nc2cccc(N)c2c(=O)n1C1CCC(=O)NC1=O (stereo not drawn) [Compound A, 3-(5-amino-2-methyl-4-oxo-4H-quinazolin-3-yl)-piperidine-2,6-dione]	inhibited cell migration	did not affect the cell migration	inhibited cell invasion	significantly reduced the volume of tumors	did not affect the cell migration	much more significantly reduced the volume of tumors	reduction of mRNA expression	did not inhibit cell migration	reduced cell migration	cell migration (wound closure) [11]: reduced cell migration; HCC cell proliferation [12]: no effect on HCC cell proliferation; cell invasion [13]: inhibited cell invasion; mRNA level of ANXA1 [8, 15]: reduced; mRNA level of ASPH [8, 15]: reduced; mRNA level of CAMK2N1 [8, 15]: reduced; mRNA level of CLDN2 [8, 15]: reduced; mRNA level of GPR56 [8, 15]: reduced; mRNA level of JAG1 [8, 15]: reduced
